Experimental data from patent US12624034B2, “Non-covalent modifiers of AKT1 and uses thereof” (Terremoto Biosciences, Inc., priority 2023, dated 2026).

How the values were obtained:
[1] = test system: LAPC4 prostate cancer cells, which express the AKT1 E17K allele; test: Antiproliferative effects in LAPC4 cells (CellTiter Glo, 72 h); format: cell-based; conditions: Homo sapiens, LAPC4, 72 h, read-out: LAPC4 proliferation IC50
Procedure: Antiproliferative Effects in LAPC4 Cells.
LAPC4 prostate cancer cells (Klein, K. A. et al. Nat Med 1997, 3, 402-408), which express the AKT1 E17K allele, were grown in IMDM media (Hyclone) supplemented with 12% FBS+1% P/S. To assess compound effects on growth, 1,000 cells/well were seeded in 384 well assay plates, incubated with compound dilutions dissolved in DMSO. After 72 h, intracellular ATP content was assessed with CellTiter Glo reagent (Promega) according to the manufacturer's instructions. IC50 values were calculated by fitting luminescence values to a log(inhibitor) vs. response Hill equation.

AKT2 = target: T1, AKT2 (Homo sapiens, UniProt P31751); test: Live cell AKT2 target engagement by NanoBRET competitive probe displacement in HEK293 cells; format: binding; conditions: NanoBRET live cell target engagement, HEK293 cells, 2 h at 37° C.; read-out: AKT2 IC50
T1 construct: expressed in transfected cells; host or cells: HEK293
T1 sequence (P31751 whole entry): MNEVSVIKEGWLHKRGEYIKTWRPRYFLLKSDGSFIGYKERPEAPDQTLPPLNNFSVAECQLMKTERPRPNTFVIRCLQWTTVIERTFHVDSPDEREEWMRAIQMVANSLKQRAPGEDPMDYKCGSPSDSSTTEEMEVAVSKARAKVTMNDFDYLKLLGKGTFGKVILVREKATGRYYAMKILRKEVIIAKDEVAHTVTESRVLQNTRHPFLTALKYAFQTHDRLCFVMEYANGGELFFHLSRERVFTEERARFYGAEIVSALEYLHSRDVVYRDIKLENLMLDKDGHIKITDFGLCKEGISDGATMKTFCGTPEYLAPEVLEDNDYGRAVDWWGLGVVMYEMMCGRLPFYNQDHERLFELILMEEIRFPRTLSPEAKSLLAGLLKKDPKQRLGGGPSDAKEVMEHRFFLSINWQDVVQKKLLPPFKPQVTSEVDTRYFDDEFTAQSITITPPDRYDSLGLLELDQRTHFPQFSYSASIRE

AKT1 E17K = target: T2, AKT1 E17K (Homo sapiens, UniProt P31749, E17K); test: Live cell AKT1 E17K target engagement by NanoBRET competitive probe displacement in HEK293 cells; format: binding; conditions: NanoBRET live cell target engagement, HEK293 cells, 2 h at 37° C.
T2 construct: expressed in transfected cells; host or cells: HEK293
T2 sequence (P31749 whole entry E17K): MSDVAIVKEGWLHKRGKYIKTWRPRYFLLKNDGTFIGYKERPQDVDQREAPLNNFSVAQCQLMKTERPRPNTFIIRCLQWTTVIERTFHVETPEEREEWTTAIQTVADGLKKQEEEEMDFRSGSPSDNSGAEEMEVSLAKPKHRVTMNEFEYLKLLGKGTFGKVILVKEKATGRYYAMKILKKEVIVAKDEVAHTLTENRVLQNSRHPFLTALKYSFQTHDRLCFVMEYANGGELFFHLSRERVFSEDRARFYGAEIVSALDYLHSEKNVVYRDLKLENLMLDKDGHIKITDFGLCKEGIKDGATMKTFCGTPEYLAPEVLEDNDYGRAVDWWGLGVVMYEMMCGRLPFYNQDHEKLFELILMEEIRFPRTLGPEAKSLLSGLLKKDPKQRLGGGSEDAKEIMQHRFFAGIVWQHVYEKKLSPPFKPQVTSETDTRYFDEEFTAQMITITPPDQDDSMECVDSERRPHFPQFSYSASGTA
Procedure: Determining live cell AKT1 E17K, AKT1 WT, and AKT2 target engagement by NanoBRET competitive probe displacement. Live cell target engagement assays were performed as described (Vasta, J. D. et al. Cell Chem Biol 2018, 25(11), 206-214). Briefly, HEK293 cells were transfected with plasmids encoding kinase-NanoLuciferase fusion proteins overnight. Cells were then treated with serial dilutions of compound and an ˜EC50 concentration of fluorescently-tagged ATP-competitive tracer (Promega). After incubation for 2 h at 37° C., luciferase substrate and extracellular luciferase inhibitor were added to all wells, and luminescent intensity at 460 nm and 600 nm were measured on a multimode plate-reader. The ratio of E600/E460 was calculated to give the tracer engagement signal (BRET). IC50 values were calculated by fitting BRET values to a log(inhibitor) vs. response Hill equation.

AKT1 WT = target: T3, AKT1 WT (Homo sapiens, UniProt P31749); test: Live cell AKT1 WT target engagement by NanoBRET competitive probe displacement in HEK293 cells; format: binding; conditions: NanoBRET live cell target engagement, HEK293 cells, 2 h at 37° C.; read-out: AKT1 WT IC50
T3 construct: expressed in transfected cells; host or cells: HEK293
T3 sequence (P31749 whole entry): as the sequence (P31749 whole entry E17K) above, with K17E counted along it

| Structure (SMILES) | IC50 [1] | IC50 (AKT2) | IC50 (AKT1 E17K) | IC50 (AKT1 WT) |
| --- | --- | --- | --- | --- |
| CN(C)c1ccc(F)c(C(=O)N[C@H]2CCc3cc(-n4c(-c5cccnc5N)nc5ccc(-n6cccn6)nc54)ccc32)c1 [Compound 7, N—{(S)-5-[2-(2-amino-3-pyridyl)-5-(1-pyrazolyl)-3H-1,3,4-triazainden-3-yl]-1-indanyl}5-(dimethylamino)-2-fluorobenzamide] | 2600 nM | 118 nM | 320 nM | 7.29 nM |
| Cn1c(C(=O)N[C@H]2CCc3cc(-n4c(-c5cccnc5N)nc5ccc(-n6cccn6)nc54)ccc32)cc2ccccc2c1=O [Compound 8, N—{(S)-5-[2-(2-amino-3-pyridyl)-5-(1-pyrazolyl)-3H-1,3,4-triazainden-3-yl]-1-indanyl}-2-methyl-1-oxo-1,2-dihydro-3-isoquinolinecarboxamide] | 523 nM | 55.8 nM | 10.8 nM | 2.97 nM |
| COc1ccc(C(=O)N[C@H]2CCc3cc(-n4c(-c5cccnc5N)nc5ccc(-n6cccn6)nc54)ccc32)cc1 [Compound 12, (S)—N-(5-(2-(2-aminopyridin-3-yl)-5-(1H-pyrazol-1-yl)-3H-imidazo[4,5-b]pyridin-3-yl)-2,3-dihydro-1H-inden-1-yl)-4-methoxybenzamide] | 740 nM | 38.1 nM | 10.5 nM | 7.56 nM |
| Cn1ccc(C(=O)N[C@H]2CCc3cc(-n4c(-c5cccnc5N)nc5ccc(-n6cccn6)nc54)ccc32)n1 [Compound 13, (S)—N-(5-(2-(2-aminopyridin-3-yl)-5-(1H-pyrazol-1-yl)-3H-imidazo[4,5-b]pyridin-3-yl)-2,3-dihydro-1H-inden-1-yl)-1-methyl-1H-pyrazole-3-carboxamide] | 3480 nM | 1270 nM | 329 nM | 49.4 nM |
| Nc1ncccc1-c1nc2ccc(-n3cccn3)nc2n1-c1ccc2c(c1)CC[C@@H]2NC(=O)c1cncs1 [Compound 14, (S)—N-(5-(2-(2-aminopyridin-3-yl)-5-(1H-pyrazol-1-yl)-3H-imidazo[4,5-b]pyridin-3-yl)-2,3-dihydro-1H-inden-1-yl)thiazole-5-carboxamide] | 1290 nM | 264 nM | 22.9 nM | 14.5 nM |
| Nc1ncccc1-c1nc2ccc(-n3cccn3)nc2n1-c1ccc2c(c1)CC[C@@H]2NC(=O)C1COC1 [Compound 15, (S)—N-(5-(2-(2-aminopyridin-3-yl)-5-(1H-pyrazol-1-yl)-3H-imidazo[4,5-b]pyridin-3-yl)-2,3-dihydro-1H-inden-1-yl)oxetane-3-carboxamide] | > 10000 nM | 4030 nM | > 1000 nM | 215 nM |
| Nc1ncccc1-c1nc2ccc(-n3cccn3)nc2n1-c1ccc2c(c1)CC[C@@H]2NC(=O)c1ccc(O)c(F)c1 [Compound 16, (S)—N-(5-(2-(2-aminopyridin-3-yl)-5-(1H-pyrazol-1-yl)-3H-imidazo[4,5-b]pyridin-3-yl)-2,3-dihydro-1H-inden-1-yl)-3-fluoro-4-hydroxybenzamide] | 560 nM | 66.5 nM | 10.2 nM | 2.41 nM |
| Nc1ncccc1-c1nc2ccc(-n3cccn3)nc2n1-c1ccc2c(c1)CC[C@@H]2NC(=O)c1ccc2nccn2c1 [Compound 17, (S)—N-(5-(2-(2-aminopyridin-3-yl)-5-(1H-pyrazol-1-yl)-3H-imidazo[4,5-b]pyridin-3-yl)-2,3-dihydro-1H-inden-1-yl)imidazo[1,2-a]pyridine-6-carboxamide] | 1020 nM | 90.6 nM | 41.2 nM | 5.78 nM |
| Nc1ncccc1-c1nc2ccc(-n3cccn3)nc2n1-c1ccc2c(c1)CC[C@@H]2NC(=O)c1ccc(C(F)F)nc1 [Compound 18, (S)—N-(5-(2-(2-aminopyridin-3-yl)-5-(1H-pyrazol-1-yl)-3H-imidazo[4,5-b]pyridin-3-yl)-2,3-dihydro-1H-inden-1-yl)-6-(difluoromethyl)nicotinamide] | 733 nM | 55.5 nM | 44.4 nM | 10.5 nM |
| Nc1ncccc1-c1nc2ccc(-n3cccn3)nc2n1-c1ccc2c(c1)CC[C@@H]2NC(=O)c1cnccn1 [Compound 19, (S)—N-(5-(2-(2-aminopyridin-3-yl)-5-(1H-pyrazol-1-yl)-3H-imidazo[4,5-b]pyridin-3-yl)-2,3-dihydro-1H-inden-1-yl)pyrazine-2-carboxamide] | 8030 nM | 2120 nM | 167 nM | 43.5 nM |
| Nc1ncccc1-c1nc2ccc(-n3cccn3)nc2n1-c1ccc2c(c1)CC[C@@H]2NC(=O)c1ccc2oncc2c1 [Compound 20, (S)—N-(5-(2-(2-aminopyridin-3-yl)-5-(1H-pyrazol-1-yl)-3H-imidazo[4,5-b]pyridin-3-yl)-2,3-dihydro-1H-inden-1-yl)benzo[d]isoxazole-5-carboxamide] | 8490 nM | 713 nM | 137 nM | 126 nM |
| COc1cncc(C(=O)N[C@H]2CCc3cc(-n4c(-c5cccnc5N)nc5ccc(-n6cccn6)nc54)ccc32)c1 [Compound 21, (S)—N-(5-(2-(2-aminopyridin-3-yl)-5-(1H-pyrazol-1-yl)-3H-imidazo[4,5-b]pyridin-3-yl)-2,3-dihydro-1H-inden-1-yl)-5-methoxynicotinamide] | 1050 nM | 30.2 nM | 20.9 nM | 4.46 nM |
| Nc1ncccc1-c1nc2ccc(-n3cccn3)nc2n1-c1ccc2c(c1)CC[C@@H]2NC(=O)c1ccc2[nH]cnc2c1 [Compound 22, (S)—N-(5-(2-(2-aminopyridin-3-yl)-5-(1H-pyrazol-1-yl)-3H-imidazo[4,5-b]pyridin-3-yl)-2,3-dihydro-1H-inden-1-yl)-1H-benzo[d]imidazole-5-carboxamide] | 1260 nM | 67.6 nM | 31.9 nM | 11.2 nM |
| COc1ncc(C(=O)N[C@H]2CCc3cc(-n4c(-c5cccnc5N)nc5ccc(-n6cccn6)nc54)ccc32)cn1 [Compound 23, (S)—N-(5-(2-(2-aminopyridin-3-yl)-5-(1H-pyrazol-1-yl)-3H-imidazo[4,5-b]pyridin-3-yl)-2,3-dihydro-1H-inden-1-yl)-2-methoxypyrimidine-5-carboxamide] | 1200 nM | 46.6 nM | 390 nM | 4.61 nM |
| Cn1cc(C(=O)N[C@H]2CCc3cc(-n4c(-c5cccnc5N)nc5ccc(-n6cccn6)nc54)ccc32)ccc1=O [Compound 24, (S)—N-(5-(2-(2-aminopyridin-3-yl)-5-(1H-pyrazol-1-yl)-3H-imidazo[4,5-b]pyridin-3-yl)-2,3-dihydro-1H-inden-1-yl)-1-methyl-6-oxo-1,6-dihydropyridine-3-carboxamide] | 6360 nM | 846 nM | 232 nM | 55.1 nM |
| COc1cc(C(=O)N[C@H]2CCc3cc(-n4c(-c5cccnc5N)nc5ccc(-n6cccn6)nc54)ccc32)ccn1 [Compound 25, (S)—N-(5-(2-(2-aminopyridin-3-yl)-5-(1H-pyrazol-1-yl)-3H-imidazo[4,5-b]pyridin-3-yl)-2,3-dihydro-1H-inden-1-yl)-2-methoxyisonicotinamide] | 576 nM | 9.84 nM | 7.43 nM | 2.11 nM |
| Cc1ccc(C(=O)N[C@H]2CCc3cc(-n4c(-c5cccnc5N)nc5ccc(-n6cccn6)nc54)ccc32)cn1 [Compound 26, (S)—N-(5-(2-(2-aminopyridin-3-yl)-5-(1H-pyrazol-1-yl)-3H-imidazo[4,5-b]pyridin-3-yl)-2,3-dihydro-1H-inden-1-yl)-6-methylnicotinamide] | 1060 nM | 69.6 nM | 26.8 nM | 6.46 nM |
| Cn1ncc2cc(C(=O)N[C@H]3CCc4cc(-n5c(-c6cccnc6N)nc6ccc(-n7cccn7)nc65)ccc43)cnc21 [Compound 28, (S)—N-(5-(2-(2-aminopyridin-3-yl)-5-(1H-pyrazol-1-yl)-3H-imidazo[4,5-b]pyridin-3-yl)-2,3-dihydro-1H-inden-1-yl)-1-methyl-1H-pyrazolo[3,4-b]pyridine-5-carboxamide] | 225 nM | 6.6 nM | 12.1 nM | 2.53 nM |
| Cc1ncccc1C(=O)N[C@H]1CCc2cc(-n3c(-c4cccnc4N)nc4ccc(-n5cccn5)nc43)ccc21 [Compound 29, (S)—N-(5-(2-(2-aminopyridin-3-yl)-5-(1H-pyrazol-1-yl)-3H-imidazo[4,5-b]pyridin-3-yl)-2,3-dihydro-1H-inden-1-yl)-2-methylnicotinamide] | 3650 nM | 153 nM | 78.6 nM | 15.9 nM |
